SMILES strings stand for the structures. Where a name gives a salt, the structure may show the parent alone.

Test [1] has as its system human platelet rich plasma (PRP). In words: ADP induced platelet aggregation assay. The settings on record: Homo sapiens, Platelet, 5 min, read-out: PA IC50 (μM) @ 10 μM ADP, human PRP, 10 μM ADP, AUC at 5 minute.
Procedure: The ability of P2Y1 antagonists covered in the present invention to inhibit platelet aggregation induced by 10 μM ADP was tested using human platelet rich plasma (PRP) as described in Platelet Protocols: Research and Clinical Laboratory Procedures (White, M. M. et al., Academic Press (1999)). Human blood was collected in 30 μM (final concentration in blood) argatroban (GSK) as the anticoagulant at a ratio of 1 mL per 9 mL of blood. The PRP was isolated by centrifugation at 170 g for 12 minutes. The platelet poor plasma (PPP) was used as the blank for optical aggregometry. Compounds of the present invention in DMSO solution was preincubated with 250 μL PRP at 37° C. for 1 minute with stirring speed of 1000 rpm. Aggregation was initiated by addition of 2.5 μL of 1 mM ADP (Chrono-log, Havertown, Pa.) for a final ADP concentration of 10 μM. Platelet aggregation was monitored using Optical Aggregometer (Chrono-log, Havertown, Pa.) and the area under the curve (AUC) at 5 minute was measured. IC50 was calculated using vehicle control as 0% inhibition.
The target in test [2] is cloned human P2Y1 receptors (Homo sapiens (Human), UniProt P47900). In words: Binding Assay B - Scintillation Proximity Assay (SPA) for P2Y1 binding, [33P] 2MeS-ADP. The settings on record: SPA, 0.3 nM [33P] 2MeS-ADP, Cheng-Prusoff; read-out: P2Y1 Ki (nM) using binding assay B. Here is the method: Binding Assay B—Scintillation Proximity Assay (SPA) for P2Y1 Binding
A SPA membrane binding assay was used to identify inhibitors of [^33P] […] Reactions were allowed to proceed to completion at room temperature for 1 hour followed by centrifugation of the plate for 5 min. About 40 μL of the aqueous solution was aspirated. Plates were sealed and the [^33P]
In general terms: Scintillation proximity formats need no separation of bound from free tracer.

Chain of cloned human P2Y1 receptors (P47900 whole entry): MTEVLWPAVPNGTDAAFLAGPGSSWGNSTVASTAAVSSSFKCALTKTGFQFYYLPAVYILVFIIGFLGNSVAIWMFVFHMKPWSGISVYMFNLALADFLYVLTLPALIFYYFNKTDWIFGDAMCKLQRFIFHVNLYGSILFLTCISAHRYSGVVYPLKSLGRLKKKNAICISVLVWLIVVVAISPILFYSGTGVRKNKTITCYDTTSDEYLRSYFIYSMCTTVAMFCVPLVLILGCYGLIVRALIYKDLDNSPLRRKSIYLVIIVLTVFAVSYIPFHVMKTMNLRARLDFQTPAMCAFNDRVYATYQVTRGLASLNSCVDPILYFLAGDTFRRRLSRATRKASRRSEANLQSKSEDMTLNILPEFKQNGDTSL

Broadly, the IC50 is the concentration that inhibits the measured activity by half. As usually defined, the Ki is a measure of affinity in units of concentration, obtained from inhibition or displacement. On to `CC1(C)CN(c2ccccc2NC(=O)Nc2nc3ccc(Cl)cc3s2)c2c(O)cc(F)c(-c3nc4cc(F)ccc4s3)c21` [Example 154, 1-(6-Chlorobenzo[d]thiazol-2-yl)-3-(2-(5-fluoro-4-(5-fluorobenzo[d]thiazol-2-yl)-7-hydroxy-3,3-dimethylindolin-1-yl)phenyl)urea], for which, in test [1], the 50% inhibitory concentration (IC50) turned out to be 0.35 µM. In test [2], the inhibitory constant (Ki) was found to be 22.5 nM.

On to `CCC1(CC)CN(c2ccccc2NC(=O)Nc2ccc(OC(F)(F)F)cc2)c2c(O)ccc(C#N)c21` [Example 43, 1-(2-(3,3-Diethyl-4-cyano-7-hydroxyindolin-1-yl)phenyl)-3-(4-(trifluoromethoxy)phenyl)urea], for which the IC50 in test [1] stood at 0.47 µM. The inhibition constant (Ki) in test [2] came to 7.8 nM.

Regarding `CC1(C)CN(c2ccccc2NC(=O)Nc2ccc(OC(F)(F)F)cc2)c2c(O)c(F)cc(-c3ccc(Cl)cc3)c21` [Example 231, 1-(2-(4-(4-Chlorophenyl)-6-fluoro-7-hydroxy-3,3-dimethylindolin-1-yl)phenyl)-3-(4-(trifluoromethoxy)phenyl)urea], the half-maximal inhibitory concentration (IC50) in test [1] worked out at 0.3 µM. Besides, the Ki in test [2] stood at 15.2 nM.

Regarding `CC1(C)CN(c2ccccc2NC(=O)Nc2ccc(OC(F)(F)F)cc2)c2c(O)cc(F)c(-c3ccc(C(F)(F)F)cn3)c21` [Example 149, 1-(2-(5-Fluoro-7-hydroxy-3,3-dimethyl-4-(5-(trifluoromethyl)pyridin-2-yl)indolin-1-yl)phenyl)-3-(4-(trifluoromethoxy)phenyl)urea], the half-maximal inhibitory concentration (IC50) in test [1] was found to be 0.11 µM. The Ki in test [2] was 13 nM.

On to `Cc1ccnc2oc(-c3ccc(O)c4c3C(C)(C)CN4c3ccccc3NC(=O)Nc3ccc(OC(F)(F)F)cc3)nc12` [Example 103, 1-(2-(7-Hydroxy-3,3-dimethyl-4-(7-methyloxazolo[5,4-b]pyridin-2-yl)indolin-1-yl)phenyl)-3-(4-(trifluoromethoxy)phenyl)urea], for which the concentration for half-maximal inhibition (IC50) in test [1] amounted to 1.03 µM. In test [2], the inhibition constant Ki is 11.1 nM.

For `CC1(C)CN(c2ccccc2NC(=O)Nc2ccc(OC(F)(F)F)cc2)c2c(O)ccc(-c3ccc(C(F)(F)F)nc3)c21` [Example 120, 1-(2-(7-Hydroxy-3,3-dimethyl-4-(6-(trifluoromethyl)pyridin-3-yl)indolin-1-yl)phenyl)-3-(4-(trifluoromethoxy)phenyl)urea,TFA], in test [1], the concentration for half-maximal inhibition (IC50) stood at 0.14 µM. Moreover, the Ki in test [2] came to 7.9 nM.

Regarding `CC1(C)CN(c2ccccc2NC(=O)Nc2csc(Cl)n2)c2c(O)cc(F)c(-c3nc4ccc(F)cc4s3)c21` [Example 150, 1-(2-Chlorothiazol-4-yl)-3-(2-(5-fluoro-4-(6-fluorobenzo[d]thiazol-2-yl)-7-hydroxy-3,3-dimethylindolin-1-yl)phenyl)urea], the half-inhibitory concentration (IC50) in test [1] was found to be 0.41 µM. Also, the Ki in test [2] was 32.7 nM.

With `COc1ccc2nc(-c3ccc(O)c4c3C(C)(C)CN4c3ccccc3NC(=O)Nc3ccc(OC(F)(F)F)cc3)oc2c1` [Example 94, 1-(2-(7-Hydroxy-4-(6-methoxybenzo[d]oxazol-2-yl)-3,3-dimethylindolin-1-yl)phenyl)-3-(4-(trifluoromethoxy)phenyl)urea], the half-inhibitory concentration (IC50) in test [1] amounted to 0.48 µM. Further, the Ki in test [2] turned out to be 39.5 nM.

As to `CC(C)(C)c1nc(-c2c(F)cc(O)c3c2C(C)(C)CN3c2ccccc2NC(=O)Nc2nc3ccc(F)cc3s2)co1` [Example 254, 1-(2-(4-(2-tert-Butyloxazol-4-yl)-5-fluoro-7-hydroxy-3,3-dimethylindolin-1-yl)phenyl)-3-(6-fluorobenzo[d]thiazol-2-yl)urea], the half-maximal inhibitory concentration (IC50) in test [1] turned out to be 0.87 µM. Also, the Ki in test [2] amounted to 13.7 nM.

On to `CC(C)(C)c1ccc(NC(=O)Nc2ccccc2N2CC(C)(C)c3ccccc32)cc1` [Comparator 1, reference compound], for which the half-maximal inhibitory concentration (IC50) in test [1] is more than 20 µM. In addition, the inhibition constant (Ki) in test [2] is 12.9 nM.

For the molecule `CCC1(CC)CN(c2ccccc2NC(=O)Nc2ccc(C(C)(C)C)cc2)c2c1ccc(F)c2O` [Example 38, 1-(4-tert-Butylphenyl)-3-(2-(3,3-diethyl-6-fluoro-7-hydroxyindolin-1-yl)phenyl)urea], in test [1], the IC50 was 0.43 µM. In addition, the Ki in test [2] worked out at 14.8 nM.

In the case of `CC1(C)CN(c2cc(F)ccc2NC(=O)Nc2nc3ccc(F)cc3s2)c2c(O)ccc(C(F)(F)F)c21` [Example 64, 1-(4-Fluoro-2-(7-hydroxy-3,3-dimethyl-4-(trifluoromethyl)indolin-1-yl)phenyl)-3-(6-fluorobenzo[d]thiazol-2-yl)urea], the IC50 in test [1] was 0.21 µM. In test [2], the inhibition constant (Ki) was 13 nM.

As to `CCC1(CC)CN(c2ccccc2NC(=O)Nc2ccc(OC(F)(F)F)cc2)c2c(O)ccc(Cl)c21` [Example 51, 1-(2-(4-Chloro-3,3-diethyl-7-hydroxyindolin-1-yl)phenyl)-3-(4-(trifluoromethoxy)phenyl)urea], in test [1], the IC50 came to 0.41 µM. Moreover, the Ki in test [2] was 14.1 nM.

Take `CC(C)CCn1cc(-c2c(F)cc(O)c3c2C(C)(C)CN3c2ccccc2NC(=O)Nc2ccc(OC(F)(F)F)cc2)cn1` [Example 185, 1-(2-(5-Fluoro-7-hydroxy-4-(1-isopentyl-1H-pyrazol-4-yl)-3,3-dimethylindolin-1-yl)phenyl)-3-(4-(trifluoromethoxy)phenyl)urea]: the IC50 in test [1] worked out at 0.16 µM. The Ki in test [2] came to 13.3 nM.

Take `CC1(C)CN(c2ccccc2NC(=O)Nc2nc3ccc(F)nc3s2)c2c(O)cc(F)c(-c3nc4cc(F)ccc4s3)c21` [Example 182, 1-(2-(5-Fluoro-4-(5-fluorobenzo[d]thiazol-2-yl)-7-hydroxy-3,3-dimethylindolin-1-yl)phenyl)-3-(5-fluorothiazolo[5,4-b]pyridin-2-yl)urea]: the half-inhibitory concentration (IC50) in test [1] was determined as 0.51 µM. In test [2], the inhibitory constant (Ki) turned out to be 15.7 nM.

Consider `CC1(C)CN(c2ccccc2NC(=O)Nc2ccc(OC(F)(F)F)cc2)c2c(O)cc(F)c(-c3ncc(F)cn3)c21` [Example 164, 1-(2-(5-Fluoro-4-(5-fluoropyrimidin-2-yl)-7-hydroxy-3,3-dimethylindolin-1-yl)phenyl)-3-(4-(trifluoromethoxy)phenyl)urea], for which, in test [1], the IC50 was found to be 0.95 µM. The Ki in test [2] turned out to be 10.8 nM.

On to `CC1(C)CN(c2ccccc2NC(=O)Nc2ccc(OC(F)(F)F)cc2)c2c(O)cc(F)c(-c3nc4ccc(F)cc4s3)c21` [Example 144, 1-(2-(5-Fluoro-4-(6-fluorobenzo[d]thiazol-2-yl)-7-hydroxy-3,3-dimethylindolin-1-yl)phenyl)-3-(4-(trifluoromethoxy)phenyl)urea], for which the half-inhibitory concentration (IC50) in test [1] was 0.5 µM. Besides, in test [2], the inhibition constant (Ki) was determined as 10 nM.

As to `CC1(C)CN(c2c(F)cccc2NC(=O)Nc2ccc(F)cc2F)c2c(O)ccc(C(F)(F)F)c21` [Example 62, 1-(2,4-Difluorophenyl)-3-(3-fluoro-2-(7-hydroxy-3,3-dimethyl-4-(trifluoromethyl)indolin-1-yl)phenyl)urea], the IC50 in test [1] was found to be 0.75 µM. In addition, in test [2], the Ki turned out to be 14.6 nM.

Consider `Cc1cc(-c2ccc(O)c3c2C(C)(C)CN3c2ccccc2NC(=O)Nc2ccc(OC(F)(F)F)cc2)cnc1F` [Example 119, 1-(2-(4-(6-Fluoro-5-methylpyridin-3-yl)-7-hydroxy-3,3-dimethylindolin-1-yl)phenyl)-3-(4-(trifluoromethoxy)phenyl) urea], for which the IC50 in test [1] was 0.47 µM. Also, in test [2], the Ki was 3.3 nM.

`CCC1(CC)CN(c2ccccc2NC(=O)Nc2nc3ccc(C)cc3s2)c2c(O)cccc21` [Example 10, 1-(2-(3,3-Diethyl-7-hydroxyindolin-1-yl)phenyl)-3-(6-methylbenzo[d]thiazol-2-yl)urea]: the half-inhibitory concentration (IC50) in test [1] was found to be 0.54 µM. For the same molecule, the Ki in test [2] was found to be 7.6 nM.
